# Assay results from ChEMBL document CHEMBL1921739, “Diabetic nephropathy-related active cyclic peptides from the roots of Brachystemma calycinum” (Bioorg Med Chem Lett, 2011).
# The source made the active and inactive calls. No cut-off for these calls is given here. Peptide text beside a SMILES is read from it.
# Key:
# [1] = Antidiabetic nephropathy activity in rat CRL-2573 cells assessed as inhibition of high glucose-induced IL-6 production at 10 uM preincubated for 1 hr before glucose challenge measured after 24 hrs by ELISA; format: functional, cell-based
# [2] = Antidiabetic nephropathy activity in rat CRL-2573 cells assessed as inhibition of high glucose-induced MCP-1 production at 10 uM preincubated for 1 hr before glucose challenge measured after 24 hrs by ELISA; format: functional, cell-based
# [3] = Antidiabetic nephropathy activity in rat CRL-2573 cells assessed as inhibition of high glucose-induced ROS production at 1 to 10 uM by flow cytometry; format: functional, cell-based
# [4] = Antidiabetic nephropathy activity in rat CRL-2573 cells assessed as inhibition of high glucose-induced collagen 4production at 1 uM preincubated for 1 hr before glucose challenge measured after 24 hrs by ELISA; format: functional, cell-based
# [5] = Cytotoxicity against rat CRL-2573 cells assessed as cell viability at 10 uM after 24 hrs by trypan blue exclusion assay; format: cell-based; settings: crl-2573, 24 h
SMILES,Activity [1],Activity [2],Activity [3],Activity [4],Activity [5]
CC(C)C[C@@H]1NC(=O)[C@H](CC(=O)O)NC(=O)[C@H](Cc2c[nH]c3ccccc23)NC(=O)[C@H](C)NC(=O)[C@@H]2CCCN2C(=O)CNC(=O)[C@H](Cc2ccccc2)NC(=O)[C@@H]2CCCN2C1=O (cyclo(AWDLPFGP)),Active,Active,Active,,
CC[C@H](C)[C@@H]1NC(=O)[C@@H]2CCCN2C(=O)[C@@H]2CCCN2C(=O)[C@H](Cc2ccc(O)cc2)NC(=O)[C@H](CO)NC(=O)[C@H](C)NC(=O)[C@H](Cc2ccccc2)NC(=O)[C@H](CO)NC1=O [DUANBANHUAIN A] (cyclo(ASYPPISF)),Active,Active,Active,Active,Non-toxic
